In patent US10981902B2 (Merck Sharp & Dohme Corp., priority 2017, dated 2021):

Target: T1, human M4 muscarinic acetylcholine receptor (Homo sapiens, UniProt P08173)
T1 construct: expressed in transfected cells; host or cells: CHO-K1
T1 sequence (P08173 1-479): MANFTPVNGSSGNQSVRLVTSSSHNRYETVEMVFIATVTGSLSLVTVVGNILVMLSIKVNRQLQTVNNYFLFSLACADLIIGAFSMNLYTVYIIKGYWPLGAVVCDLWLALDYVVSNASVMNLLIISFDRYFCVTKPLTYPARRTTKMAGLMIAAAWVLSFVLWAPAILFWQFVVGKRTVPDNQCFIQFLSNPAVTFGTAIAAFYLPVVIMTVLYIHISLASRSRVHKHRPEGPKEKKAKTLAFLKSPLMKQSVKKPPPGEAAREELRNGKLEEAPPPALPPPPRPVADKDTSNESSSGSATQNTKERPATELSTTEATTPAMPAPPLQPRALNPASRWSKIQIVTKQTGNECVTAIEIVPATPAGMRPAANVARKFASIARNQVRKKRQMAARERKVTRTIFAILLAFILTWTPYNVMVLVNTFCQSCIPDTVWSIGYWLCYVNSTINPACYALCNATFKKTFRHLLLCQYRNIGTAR
Assay: human FLIPR-based M4 PAM assay (calcium mobilization, CHO-K1 cells with human M4 receptor and Gαqi5)
Format: cell-based
Settings: inflection point (IP) of dose response curve, acetylcholine added at 20% of maximum response, read-out: M4 FLIPPR Hu IP
Method: In a typical experiment the M4 muscarinic acetylcholine receptor modulating activity of the compounds of the present invention was determined in accordance with the following experimental method. CHO-K1 cells stably transfected with human M4 receptor and chimeric G-protein Gαqi5 (Coward P, et al., Analytical Biochemistry, 270:242-248 (1999)) are thawed from liquid N2 storage, resuspended in growth medium, plated in black, clear bottom 384 well plates, and incubated 16-20 hours at 37° C., 5% CO2. On the day of assay, growth medium is removed, the cells are washed 2 times with wash buffer, and cells are incubated in dye loading buffer at 37° C., 5% CO2 for ˜1 hour. Following dye loading the cell plates are placed in a FLIPR Tetra instrument and while monitoring dye fluorescence (excitation […]), 10 uL of test substance at increasing concentrations is added, and fluorescence values are recorded for 4 min. Next, 10 uL of acetylcholine is added (final concentration calculated so as to achieve 20% of the maximum acetycholine response), and the fluorescence reading is continued for 3.5 min. In some cases, a third addition of acetylcholine (final concentration calculated to achieve 70% of the maximal acetylcholine response) is performed. The resulting dose response curves are fit to a 4 parameter logistic equation and the final result is determined as the inflection point (IP) of the curve
CHO-K1 cells stably transfected with human M4 receptor and chimeric G-protein Gαqi5 are thawed from liquid N2 storage, resuspended in growth medium, plated in black, clear bottom 384 well plates, and incubated 16-20 hours at 37° C., 5% CO2.
On the day of assay, growth medium is removed, the cells are washed 2 times with wash buffer, and cells are incuabted in dye loading buffer at 37° C., 5% CO2 for ˜1 h. Following dye loading the cell plates are placed in a FLIPR Tetra instrument and while monitoring dye fluorescence ([…]), 10 uL of test substance at increasing concentrations is added, and fluorescence values are recorded for 4 min. Next, 10 uL of acetylcholine is added (final concentration calculated so as to achieve 20% of the maximum acetycholine response), and the fluorescence reading is continued for 3.5 min. In some cases, a third addition of acetylcholine (final concentration calculated to achieve 70% of the maximal acetylcholine response) is performed.

`CC(C)(Cc1ncc(-c2ccc(C(F)F)nc2-c2ccn3ccnc3c2)o1)C(F)(F)F` [Example 25, 5-(6-(difluoromethyl)-2-(imidazo[1,2-a]-pyridin-7-yl)pyridin-3-yl)-2-(3,3,3-trifluoro-2,2-dimethylpropyl)-oxazole] and `CC(CCc1ncc(-c2ccc(C#N)nc2-c2ccn3ccnc3c2)o1)C(F)(F)F` (stereo not drawn) [Example 40, 6-(imidazo[1,2-a]-pyridin-7-yl)-5-(2-(4,4,4-trifluoro-3-methylbutyl)oxazol-5-yl)picolinonitrile] are within 1.5-fold of each other in EC50: 35 nM for the first, 46 nM for the second.

`Cc1cn2ccc(-c3nc(C#N)ccc3-c3cnc(CC(C)(C)C)o3)cc2n1` [Example 32, 6-(2-methylimidazo-[1,2-a]pyridin-7-yl)-5-(2-neopentyloxazol-5-yl)picolinonitrile] and `COCc1cn2ccc(-c3nc(C#N)ccc3-c3cnc(CC(C)(C)C)o3)cc2n1` [Example 37, 6-(2-(methoxy-methyl)imidazo-[1,2-a]pyridin-7-yl)-5-(2-neopentyl-oxazol-5-yl)picolino-nitrile] are within 1.5-fold of each other in EC50: 69 nM for the first, 78 nM for the second.

`CC1(Cc2ncc(-c3cc4c(nc3-c3ccc5ccc(F)nc5c3)C(=O)CC4)o2)CCCC1` [Example 43, 2-(2-fluoroquinolin-7-yl)-3-(2-((1-methylcyclopentyl)methyl)oxazol-5-yl)-5,6-dihydro-7H-cyclopenta[b]pyridin-7-one] and `CN1Cc2ccc(-c3nc(C#N)ccc3-c3cnc(CC4(F)CCCC4)o3)cc2C1=O` [Example 82, 5-(2-((1-fluorocyclopentyl)methyl)oxazol-5-yl)-6-(2-methyl-3-oxoisoindolin-5-yl)picolinonitrile] are within 1.5-fold of each other in EC50: 43 nM for the first, 42 nM for the second.

`COc1cc2ccc(-c3nc(C)ccc3-c3cnc(CC4CCCC4)o3)cc2nn1` [Example 2, 2-(cyclopentyl-methyl)-5-(2-(3-methoxycinnolin-7-yl)-6-methyl-pyridin-3-yl)-oxazole] and `Cc1ccc(-c2cnc(CC3CCCC3)o2)c(-c2ccc3c(c2)C(=O)N(C)C3)n1` [Example 46, 6-(3-(2-(cyclopentylmethyl)oxazol-5-yl)-6-methylpyridin-2-yl)-2-methylisoindolin-1-one] are the same in EC50: 13 nM for the first, 13 nM for the second.

First: Cc1nc2cc(-c3nc(C#N)ccc3-c3cnc(CCC(C)(C)F)o3)ccc2n1C [Example 117, 6-(1,2-dimethyl-1H-benzo[d]imidazol-5-yl)-5-(2-(3-fluoro-3-methylbutyl)oxazol-5-yl) picolinonitrile]
Second: Cc1nc2cc(-c3nc(C#N)ccc3-c3cnc(CC(C)(C)F)o3)ccc2n1C [Example 89, 6-(1,2-dimethyl-1H-benzo[d]imidazol-5-yl)-5-(2-(2-fluoro-2-methylpropyl)oxazol-5-yl)picolinonitrile]
The EC50 of the first is 1.9-fold lower: 60 nM for the first, 112 nM for the second.

First: Clc1ccc(-c2cnc(CC3CCCC3)o2)c(N2CCn3ccnc3C2)n1 [Example 57, 5-(6-chloro-2-(5,6-dihydroimidazo[1,2-a]pyrazin-7(8H)-yl)pyridin-3-yl)-2-(cyclopentylmethyl) oxazole]
Second: N#Cc1ccc(-c2cnc(CC3CCCC3)o2)c(N2CCn3ccnc3C2)n1 [Example 58, 5-(2-(cyclopentylmethyl)oxazol-5-yl)-6-(5,6-dihydroimidazo[1,2-a]pyrazin-7(8H)-yl) picolinonitrile]
The EC50 of the first is 6.9-fold higher: 117 nM for the first, 17 nM for the second. The second is the more potent here.

`CC(Cc1ncc(-c2ccc(C#N)nc2-c2ccc3cccnc3c2)o1)C(C)(C)F` (stereo not drawn) [Example 83, 5-(2-(3-fluoro-2,3-dimethylbutyl)oxazol-5-yl)-6-(quinolin-7-yl) picolinonitrile] and `CC(C)Cc1ncc(-c2ccc(C#N)nc2-c2ccc3cccnc3c2)o1` [Example 61, 5-(2-isobutyloxazol-5-yl)-6-(quinolin-7-yl)picolinonitrile] are within 1.5-fold of each other in EC50: 68 nM for the first, 61 nM for the second.

`Cc1cn2ccc(-c3nc(C#N)ccc3-c3cnc(CC(F)C4CC4)o3)cc2n1` (stereo not drawn) [Example 87, 5-(2-(2-cyclopropyl-2-fluoroethyl)oxazol-5-yl)-6-(2-methylimidazo [1,2-a]pyridin-7-yl) picolinonitrile] and `N#Cc1ccc(-c2cnc(CC(F)C3CC3)o2)c(-c2ccn3ccnc3c2)n1` (stereo not drawn) [Example 84, 5-(2-(2-cyclopropyl-2-fluoroethyl)oxazol-5-yl)-6-(imidazo[1,2-a]pyridin-7-yl) picolinonitrile] are within 1.5-fold of each other in EC50: 44 nM for the first, 30 nM for the second.

Compared with `Cc1cn2ccc(-c3nc(C#N)ccc3-c3cnc(CC4(F)CCCC4)o3)cc2n1` [Example 79, 5-(2-((l-fluorocyclopentyl)methyl)oxazol-5-yl)-6-(2-methylimidazo [1,2-a]pyridin-7-yl) picolinonitrile], `Cc1cn2ccc(-c3nc(C#N)ccc3-c3cnc(CCC(F)(F)F)o3)cc2n1` [Example 107, 6-(2-methylimidazo[1,2-a]pyridin-7-yl)-5-(2-(3,3,3-trifluoropropyl)oxazol-5-yl)picolinonitrile] is 3.1-fold higher in EC50: 31 nM for the first, 96 nM for the second. The first is the more potent here.

Compared with `Cc1ccc(-c2cnc(Cc3ccc(F)cc3)o2)c(N2CCn3ccnc3C2)n1` [Example 59, 5-(2-(5,6-dihydroimidazo[1,2-a]pyrazin-7(8H)-yl)-6-methylpyridin-3-yl)-2-(4-fluorobenzyl)oxazole], `N#Cc1ccc(-c2cnc(CC3CC3)o2)c(-c2ccc3cccnc3c2)n1` [Example 62, 5-(2-(cyclopropylmethyl)oxazol-5-yl)-6-(quinolin-7-yl)picolinonitrile] is 4.4-fold lower in EC50: 459 nM for the first, 104 nM for the second. The second is the more potent here.

`CN1Cc2ncc(-c3nc(C#N)ccc3-c3cnc(CC4(F)CCCC4)o3)cc2C1=O` [Example 77] and `CN1Cc2ccc(-c3ncccc3-c3cnc(CC4CCCC4)o3)cc2C1=O` [Example 3, 6-(3-(2-(cyclo-pentylmethyl)-oxazol-5-yl)-pyridin-2-yl)-2-methylisoindolin-1-one] are within 1.5-fold of each other in EC50: 45 nM for the first, 42 nM for the second.

`Cc1cn2ccc(-c3nc(C#N)ccc3-c3cnc(CC(C)(C)C(F)(F)F)o3)cc2n1` [Example 33, 6-(2-methylimidazol-[1,2-a]pyridin-7-yl)-5-(2-(3,3,3-trifluoro-2,2-dimethylpropyl)-oxazol-5-yl)picolino-nitrile] and `Cn1cnc2cc(-c3nc(C#N)ccc3-c3cnc(CC(C)(C)C(F)(F)F)o3)ccc21` [Example 114, 6-(1-methyl-1H-benzo[d]imidazol-5-yl)-5-(2-(3,3,3-trifluoro-2,2-dimethylpropyl)oxazol-5-yl)picolinonitrile] are within 1.5-fold of each other in EC50: 72 nM for the first, 92 nM for the second.

Compared with `Cn1cnc2cc(-c3nc(C(F)F)ccc3-c3cnc(CC4CCCC4)o3)cnc21` [Example 49, 2-(cyclopentylmethyl)-5-(6-(difluoromethyl)-2-(3-methyl-3H-imidazo[4,5-b]pyridin-6-yl)pyridin-3-yl) oxazole], `N#Cc1ccc(-c2cnc(CC3CC3)o2)c(-c2ccn3ccnc3c2)n1` [Example 63, 5-(2-(cyclopropylmethyl)oxazol-5-yl)-6-(imidazo[1,2-a]pyridin-7-yl)picolinonitrile] is 2.1-fold higher in EC50: 45 nM for the first, 94 nM for the second. The first is the more potent here.

Compared with `O=C1c2cc(-c3nc4c(cc3-c3cnc(CC5CCCC5)o3)CCC4)cnc2CN1CC1CC1` [Example 52, 3-(3-(2-(cyclopentylmethyl)oxazol-5-yl)-6,7-dihydro-5H-cyclopenta[b]pyridin-2-yl)-6-(cyclopropylmethyl)-6,7-dihydro-5H-pyrrolo[3,4-b] pyridin-5-one], `N#Cc1ccc(-c2cnc(CC(F)C3CC3)o2)c(-c2ccn3ccnc3c2)n1` (stereo not drawn) [Example 85, 5-(2-(2-cyclopropyl-2-fluoroethyl)oxazol-5-yl)-6-(imidazo[1,2-a]pyridin-7-yl) picolinonitrile] is 3.6-fold lower in EC50: 178 nM for the first, 49 nM for the second. The second is the more potent here.

`Cc1cn2ccc(-c3nc(C#N)ccc3-c3cnc(CC(O)C(C)C)o3)cc2n1` (stereo not drawn) [Example 92, 5-(2-(2-hydroxy-3-methylbutyl)oxazol-5-yl)-6-(2-methylimidazo [1,2-a]pyridin-7-yl)picolinonitrile] and `Cc1nc2cc(-c3nc(C#N)ccc3-c3cnc(CC(C)(C)C(F)(F)F)o3)ccc2n1C` [Example 111, 6-(1,2-dimethyl-1H-benzo[d]imidazol-5-yl)-5-(2-(3,3,3-trifluoro-2,2-dimethylpropyl)oxazol-5-yl)picolinonitrile] are within 1.5-fold of each other in EC50: 131 nM for the first, 114 nM for the second.
